Source: PubChem BioAssay (NCI)
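Five concentrations, 48 hours, 96-well plates. At the GI50, growth is halved. TGI denotes the concentration required for complete inhibition of growth.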

Key:
Assay in all cases: NCI-60 cell line screen, 48 h
SK-MEL-28 melanoma = test system: SK-MEL-28 melanoma
ACHN renal = test system: ACHN renal
SK-MEL-5 melanoma = test system: SK-MEL-5 melanoma
MOLT-4 leukemia = test system: MOLT-4 leukemia
T-47D breast = test system: T-47D breast
SW-620 colon = test system: SW-620 colon
MDA-MB-468 breast = test system: MDA-MB-468 breast
IGROV1 ovarian = test system: IGROV1 ovarian
CAKI-1 renal = test system: CAKI-1 renal
NCI/ADR-RES ovarian = test system: NCI/ADR-RES ovarian
U251 CNS = test system: U251 CNS
M14 melanoma = test system: M14 melanoma
UO-31 renal = test system: UO-31 renal
HCT-15 colon = test system: HCT-15 colon
K-562 leukemia = test system: K-562 leukemia
MALME-3M melanoma = test system: MALME-3M melanoma
COLO 205 colon = test system: COLO 205 colon
TK-10 renal = test system: TK-10 renal
NCI-H226 lung = test system: NCI-H226 lung
NCI-H23 lung = test system: NCI-H23 lung
HL-60(TB) leukemia = test system: HL-60(TB) leukemia
HOP-92 NSCLC = test system: HOP-92 NSCLC
LOX IMVI melanoma = test system: LOX IMVI melanoma
KM12 colon = test system: KM12 colon
UACC-257 melanoma = test system: UACC-257 melanoma
NCI-H460 lung = test system: NCI-H460 lung
HCT-116 colon = test system: HCT-116 colon
A498 renal = test system: A498 renal
SF-539 CNS = test system: SF-539 CNS
MDA-MB-231 breast = test system: MDA-MB-231 breast
HS 578T breast = test system: HS 578T breast
MCF7 breast = test system: MCF7 breast
UACC-62 melanoma = test system: UACC-62 melanoma
HT29 colon = test system: HT29 colon
RXF 393 renal = test system: RXF 393 renal
CCRF-CEM leukemia = test system: CCRF-CEM leukemia
SN12C renal = test system: SN12C renal
OVCAR-8 ovarian = test system: OVCAR-8 ovarian
OVCAR-4 ovarian = test system: OVCAR-4 ovarian
RPMI-8226 leukemia = test system: RPMI-8226 leukemia
SF-268 CNS = test system: SF-268 CNS
SF-295 CNS = test system: SF-295 CNS
EKVX NSCLC = test system: EKVX NSCLC
BT-549 breast = test system: BT-549 breast
NCI-H522 lung = test system: NCI-H522 lung
786-0 renal = test system: 786-0 renal
A549 NSCLC = test system: A549 NSCLC
OVCAR-3 ovarian = test system: OVCAR-3 ovarian
HOP-62 NSCLC = test system: HOP-62 NSCLC
DU-145 prostate = test system: DU-145 prostate
MDA-MB-435 = test system: MDA-MB-435
SNB-75 CNS = test system: SNB-75 CNS
PC-3 prostate = test system: PC-3 prostate
SK-OV-3 ovarian = test system: SK-OV-3 ovarian
HCC-2998 colon = test system: HCC-2998 colon
SK-MEL-2 melanoma = test system: SK-MEL-2 melanoma
SR leukemia = test system: SR leukemia
SNB-19 CNS = test system: SNB-19 CNS
OVCAR-5 ovarian = test system: OVCAR-5 ovarian

## C=CC[Se]C(=O)c1ccc(C(=O)[Se]CC=C)s1
SK-MEL-28 melanoma
  GI50: 666 nM
  TGI: 1850 nM
ACHN renal
  GI50: 942 nM
  TGI: 4.37 µM
SK-MEL-5 melanoma
  GI50: 1490 nM
  TGI: 3.35 µM
MOLT-4 leukemia
  GI50: 992 nM
  TGI: 5.6 µM
T-47D breast
  GI50: 265 nM
  TGI: 962 nM
SW-620 colon
  GI50: 800 nM
  TGI: 2140 nM
MDA-MB-468 breast
  GI50: 657 nM
  TGI: 1620 nM
IGROV1 ovarian
  GI50: 277 nM
  TGI: 727 nM
CAKI-1 renal
  GI50: 810 nM
  TGI: 9.76 µM
NCI/ADR-RES ovarian
  GI50: 261 nM
  TGI: 661 nM
U251 CNS
  GI50: 505 nM
  TGI: 1870 nM
M14 melanoma
  GI50: 387 nM
  TGI: 1570 nM
UO-31 renal
  GI50: 515 nM
  TGI: 1090 nM
HCT-15 colon
  GI50: 765 nM
  TGI: 2150 nM
K-562 leukemia
  GI50: 2100 nM
  TGI: > 23 µM
MALME-3M melanoma
  GI50: 670 nM
  TGI: 2350 nM
COLO 205 colon
  GI50: 1400 nM
  TGI: 4.03 µM
TK-10 renal
  GI50: 1050 nM
  TGI: 7.56 µM
NCI-H226 lung
  GI50: 794 nM
  TGI: 2710 nM
NCI-H23 lung
  GI50: 313 nM
  TGI: 1030 nM
HL-60(TB) leukemia
  GI50: 581 nM
  TGI: 2580 nM
HOP-92 NSCLC
  GI50: 920 nM
  TGI: 7.65 µM
LOX IMVI melanoma
  GI50: 721 nM
  TGI: 2000 nM
KM12 colon
  GI50: 284 nM
  TGI: 928 nM
UACC-257 melanoma
  GI50: 721 nM
  TGI: 2080 nM
NCI-H460 lung
  GI50: 289 nM
  TGI: 1610 nM
HCT-116 colon
  GI50: 327 nM
  TGI: 1230 nM
A498 renal
  GI50: 2820 nM
  TGI: 66.9 µM
SF-539 CNS
  GI50: 307 nM
  TGI: 852 nM
MDA-MB-231 breast
  GI50: 676 nM
  TGI: 6.41 µM
HS 578T breast
  GI50: 294 nM
  TGI: 1890 nM
MCF7 breast
  GI50: 565 nM
  TGI: 1840 nM
UACC-62 melanoma
  GI50: 482 nM
  TGI: 1390 nM
HT29 colon
  GI50: 887 nM
  TGI: > 31.5 µM
RXF 393 renal
  GI50: 696 nM
  TGI: 1640 nM
CCRF-CEM leukemia
  GI50: 428 nM
  TGI: > 21.8 µM
SN12C renal
  GI50: 348 nM
  TGI: 1110 nM
OVCAR-8 ovarian
  GI50: 345 nM
  TGI: 1090 nM
OVCAR-4 ovarian
  GI50: 948 nM
  TGI: 2500 nM
RPMI-8226 leukemia
  GI50: 375 nM
  TGI: 2430 nM
SF-268 CNS
  GI50: 768 nM
  TGI: 4.83 µM
SF-295 CNS
  GI50: 55.2 nM
  TGI: 317 nM
EKVX NSCLC
  GI50: 623 nM
  TGI: 1630 nM
BT-549 breast
  GI50: 324 nM
  TGI: 1300 nM
NCI-H522 lung
  GI50: 524 nM
  TGI: 1040 nM
786-0 renal
  GI50: 314 nM
  TGI: 1160 nM
A549 NSCLC
  GI50: 313 nM
  TGI: > 27.5 µM
OVCAR-3 ovarian
  GI50: 655 nM
  TGI: 1620 nM
HOP-62 NSCLC
  GI50: 152 nM
  TGI: 1450 nM
DU-145 prostate
  GI50: 680 nM
  TGI: 6.4 µM
MDA-MB-435
  GI50: 691 nM
  TGI: 2060 nM
SNB-75 CNS
  GI50: 215 nM
  TGI: 577 nM
PC-3 prostate
  GI50: 286 nM
  TGI: 1290 nM
SK-OV-3 ovarian
  GI50: 224 nM
  TGI: 546 nM
HCC-2998 colon
  GI50: 313 nM
  TGI: 1000 nM
SK-MEL-2 melanoma
  GI50: 1260 nM
  TGI: 3.17 µM
SR leukemia
  GI50: 603 nM
  TGI: 2210 nM
SNB-19 CNS
  GI50: 289 nM
  TGI: 1260 nM
OVCAR-5 ovarian
  GI50: 382 nM
  TGI: 1010 nM
